Assay results reported in article PMC7992430 (Journal of medicinal chemistry, 2020).

Tests used:
[1] = test system: G9 neurospheres (glioma stem-like cells); experiment: G9 cytotoxicity assay; assay type: cell-based
[2] = test system: G30 neurospheres (glioma stem-like cells, luciferase-transduced); experiment: G30 cytotoxicity assay; assay type: cell-based; conditions: read-out: IC50 in G30 GSCs, 72 h treatment, CellTiter-Glo

## N.N.[Cl][Pt][Cl] [cisplatin]
[1]; read-out: IC50 against G9 cells, 80 h treatment, CellTiter-Glo
  IC50: 4 µM
[2]
  IC50: 2 µM

## CCCCNC(=O)[O][Pt]([NH2])([NH2])([Cl])([Cl])[O]C(=O)CCC(=O)O [prodrug 4, cis,cis,trans-[Pt(NH3)2Cl2(O2CCH2CH2COOH)(n-butyl Carba-mate)]]
[1]; 80 h treatment, CellTiter-Glo
  IC50 against G9 cells: not active
